Results from patent US11666600B2, “Methods for culturing and/or differentiating hematopoietic stem cells into progenitors and uses thereof” (HEMA-QUEBEC, priority 2015, dated 2023).

How the values were obtained:
[1] = test system: CD34+ cells from human umbilical cord blood; experiment: CFU-MK assay (Megacult C) on cells grown in ACF + BS1; assay type: cell-based; details: 39° C. + PIC 35 nM; FIG. 2
Description: Aliquots of cells grown in StemSpan™ ACF+BS1 culture medium were collected on the indicated days, and CFU-MK were determined using the Megacult™ C kit from […]™ Technologies, according to the manufacturer's instructions.

[2] = test system: Human CB CD34+-enriched cells; experiment: Culture of CB CD34+-enriched hematopoietic stem cells in conditions favoring self-renewal; assay type: cell-based; details: for Percentage of phenotype CD34+ / Percentage of phenotype CD34+/CD38− / Percentage of phenotype CD34+/CD38−/CD45RA− / Percentage of phenotype CD34+/CD45RA− / Percentage of phenotype CD38− / Percentage of phenotype CD45RA−: 14 days
Description: Human cord blood (CB) was collected after obtaining written informed consent from donors, following our institutional Research Ethics Committee guidelines. Mononuclear cells (MNCs) were first separated over a Ficoll-Hypaque™ density gradient (GE Healthcare), then cryopreserved at −180° C. in Cryostor CS10™ medium ([…] Technologies). Thawed MNCs from six to eight CB were pooled before CD34 isolation. CB CD34+ cells were enriched by positive selection using the EasySep™ CD34 enrichment kit, according to the manufacturer's instructions ([…] Technologies).
Cultures were maintained in a humidified atmosphere with 5% CO2 at 37° C. or 39° C., as indicated in the Examples. Cells were diluted at 500 000 cells/mL with fresh medium every 3 to 4 days.
(§1) Cellular counts and viability were determined by adding Solution 18 (Acridine Orange and DAPI solution, ChemomMetec) and using NucleoCounter™ NC-250 for detection (ChemomMetec).
For cells expanded in conditions favoring self-renewal, surface markers were detected using the following antibodies: CD34-PE, CD45RA-FITC, and CD38-BV421. All antibodies were purchased from BD Biosciences, except for CD34-PE which was purchased from Immunotech. Labeling of aldehyde dehydrogenase (ALDH)-positive cells was performed using the ALDEFLUOR™ Kit ([…] Technologies), according to the manufacturer's instructions. 7AAD was used as a viability dye. All samples were analyzed on a FACS-Cy Flow ML system (Sysmex), and raw data were analyzed with FCS Express 5 Flow Research Edition software from at least 15 000 viable cell events acquired for each sample.
Cellular counts and viability were determined as described in Example 6.5.

cord blood CD34+ cells = experiment: Expansion of CD34+/CD41+ megakaryocytic progenitors from cord blood CD34+ cells; assay type: cell-based, human; details: 39° C. + PIC 35 nM; 14 days; ACF + OMPC; FIG. 4
Description: Human cord blood (CB) was collected after obtaining written informed consent from donors, following our institutional Research Ethics Committee guidelines. Mononuclear cells (MNCs) were first separated over a Ficoll-Hypaque™ density gradient (GE Healthcare), then cryopreserved at −180° C. in Cryostor CS10™ medium ([…] Technologies). Thawed MNCs from six to eight CB were pooled before CD34 isolation. CB CD34+ cells were enriched by positive selection using the EasySep™ CD34 enrichment kit, according to the manufacturer's instructions ([…] Technologies). […]
as §1
For cells expanded in conditions favoring differentiation towards the MK lineage, surface markers were detected using the following antibodies: CD34-FITC, CD41a-APC and CD42b-PE. […] All samples were analyzed on an Accuri™ C6 flow cytometer (BD Biosciences), and raw data were analyzed with FCS Express 5 Flow Research Edition software from at least 15 000 viable cell events acquired for each sample. […]
Cellular counts and viability were determined as described in Example 6.5. […]

[3] = 37° C. + PIC 35 nM, ACF + CC110
[4] = 37° C. + PIC 35 nM, ACF + CC110 (Table 5)
[5] = 37° C. + PIC 35 nM, ACF + HM (Table 5)
[6] = 37° C. + PIC 35 nM, SFEM + CC110
[7] = 37° C. + PIC 35 nM, SFEM II + CC110
[8] = 37° C. + PIC 35 nM, SFEM II + HM
[9] = 39° C. + PIC 35 nM, ACF + CC110
[10] = 39° C. + PIC 35 nM, ACF + CC110 (Table 5)
[11] = 39° C. + PIC 35 nM, ACF + HM (Table 5)
[12] = 39° C. + PIC 35 nM, SFEM + CC110
[13] = 39° C. + PIC 35 nM, SFEM II + CC110
[14] = 39° C. + PIC 35 nM, SFEM II + HM

SMILES: Cl.Cn1nnc(-c2ccc3c(c2)[nH]c2nc(Cc4ccccc4)nc(N[C@H]4CC[C@H](N)CC4)c23)n1 [PIC, (1r,4r)-N1-(2-benzyl-7-(2-methyl-2H-tetrazol-5-yl)-9H-pyrimido[4,5-b]indol-4-yl)cyclohexane-1,4-diamine hydrochloride]
- combined effect of mild hyperthermia and PIC on the number of CFU-MK [1]: synergized
- combined use of mild hyperthermia and PIC on expansion of CD34+/ALDH^Bright cells ([2]; 39° C. + PIC 35 nM, 21 days, ACF + HM, FIG. 29): synergistic expansion
- Percentage of phenotype CD34+ [2, 3]: 48.9%
- Percentage of phenotype CD34+/CD38− [2, 3]: 30.3%
- Percentage of phenotype CD34+/CD38−/CD45RA− [2, 3]: 10%
- Percentage of phenotype CD34+/CD45RA− [2, 3]: 16.36%
- Percentage of phenotype CD38− [2, 3]: 14.8%
- Percentage of phenotype CD45RA− [2, 3]: 59.2%
- Percentage of phenotype CD34+ [2, 4]: 50.98%
- Percentage of phenotype CD34+/CD45RA− [2, 4]: 11.83%
- Percentage of phenotype CD45RA− [2, 4]: 76.09%
- Percentage of phenotype CD34+ ([2]; 37° C. + PIC 35 nM, ACF + HM): 51.5%
- Percentage of phenotype CD34+/CD38− ([2]; 37° C. + PIC 35 nM, ACF + HM): 32.4%
- Percentage of phenotype CD34+/CD38−/CD45RA− ([2]; 37° C. + PIC 35 nM, ACF + HM): 14.7%
- Percentage of phenotype CD34+/CD45RA− ([2]; 37° C. + PIC 35 nM, ACF + HM): 22.4%
- Percentage of phenotype CD38− ([2]; 37° C. + PIC 35 nM, ACF + HM): 12.05%
- Percentage of phenotype CD45RA− ([2]; 37° C. + PIC 35 nM, ACF + HM): 53.4%
- Percentage of phenotype CD34+ [2, 5]: 44.62%
- Percentage of phenotype CD34+/CD45RA− [2, 5]: 7.67%
- Percentage of phenotype CD45RA− [2, 5]: 77.44%
- Percentage of phenotype CD34+ [2, 6]: 42.68%
- Percentage of phenotype CD34+/CD45RA− [2, 6]: 6.96%
- Percentage of phenotype CD45RA− [2, 6]: 78.72%
- Percentage of phenotype CD34+ ([2]; 37° C. + PIC 35 nM, SFEM + HM): 37.4%
- Percentage of phenotype CD34+/CD45RA− ([2]; 37° C. + PIC 35 nM, SFEM + HM): 6.66%
- Percentage of phenotype CD45RA− ([2]; 37° C. + PIC 35 nM, SFEM + HM): 75.74%
- Percentage of phenotype CD34+ [2, 7]: 33.38%
- Percentage of phenotype CD34+/CD45RA− [2, 7]: 6.09%
- Percentage of phenotype CD45RA− [2, 7]: 77.73%
- Percentage of phenotype CD34+ [2, 8]: 30.82%
- Percentage of phenotype CD34+/CD45RA− [2, 8]: 6.11%
- Percentage of phenotype CD45RA− [2, 8]: 77.27%
- Percentage of phenotype CD34+ [2, 9]: 43.7%
- Percentage of phenotype CD34+/CD38− [2, 9]: 24.2%
- Percentage of phenotype CD34+/CD38−/CD45RA− [2, 9]: 14.1%
- Percentage of phenotype CD34+/CD45RA− [2, 9]: 23.05%
- Percentage of phenotype CD38− [2, 9]: 14.45%
- Percentage of phenotype CD45RA− [2, 9]: 40.85%
- Percentage of phenotype CD34+ [2, 10]: 43.73%
- Percentage of phenotype CD34+/CD45RA− [2, 10]: 18.73%
- Percentage of phenotype CD45RA− [2, 10]: 59.72%
- Percentage of phenotype CD34+ ([2]; 39° C. + PIC 35 nM, ACF + HM): 40.95%
- Percentage of phenotype CD34+/CD38− ([2]; 39° C. + PIC 35 nM, ACF + HM): 22.9%
- Percentage of phenotype CD34+/CD38−/CD45RA− ([2]; 39° C. + PIC 35 nM, ACF + HM): 15.7%
- Percentage of phenotype CD34+/CD45RA− ([2]; 39° C. + PIC 35 nM, ACF + HM): 24.8%
- Percentage of phenotype CD38− ([2]; 39° C. + PIC 35 nM, ACF + HM): 12%
- Percentage of phenotype CD45RA− ([2]; 39° C. + PIC 35 nM, ACF + HM): 35.2%
- Percentage of phenotype CD34+ [2, 11]: 44.82%
- Percentage of phenotype CD34+/CD45RA− [2, 11]: 17.68%
- Percentage of phenotype CD45RA− [2, 11]: 59.67%
- Percentage of phenotype CD34+ [2, 12]: 45.36%
- Percentage of phenotype CD34+/CD45RA− [2, 12]: 12.23%
- Percentage of phenotype CD45RA− [2, 12]: 70.13%
- Percentage of phenotype CD34+ ([2]; 39° C. + PIC 35 nM, SFEM + HM): 41.95%
- Percentage of phenotype CD34+/CD45RA− ([2]; 39° C. + PIC 35 nM, SFEM + HM): 12.39%
- Percentage of phenotype CD45RA− ([2]; 39° C. + PIC 35 nM, SFEM + HM): 69.88%
- Percentage of phenotype CD34+ [2, 13]: 37.9%
- Percentage of phenotype CD34+/CD45RA− [2, 13]: 15.03%
- Percentage of phenotype CD45RA− [2, 13]: 63.9%
- Percentage of phenotype CD34+ [2, 14]: 37.56%
- Percentage of phenotype CD34+/CD45RA− [2, 14]: 15.27%
- Percentage of phenotype CD45RA− [2, 14]: 63.45%
- combined use of mild hyperthermia and PIC on expansion of CD34+/CD41+ cells (cord blood CD34+ cells): synergistic effect
